Assay results as given in patent US20110152207A1, “USE OF VITAMIN D GLYCOSIDES AND SULFATES FOR TREATMENT OF DISEASE” (priority 2009, published 2011).
Marks after values point to notes of the source that are not given here.

Columns and labels:
[1] = Plasma calcium in the DSS mouse model of IBD; assay type: in vivo; conditions: DSS mice
Text: (§1) In this example, β-gluc-1,25-D3 compounds, alone or in combination with 25-β-glucuronide-25-hydroxyvitamin D3 compounds (hereinafter β-gluc-25-D3) were incorporated into the diet of mice and compared to equimolar 1,25-D3 with respect to therapeutic effects on IBD and induction of calcemia. A standard mouse model of IBD comprising administering dextran sodium sulfate (DSS) to induce inflammation of the lower colon was used to study these effects. Vitamin D treatments were first initiated for 4 days. After 4 days, mice were fed DSS-water for 7 days, allowed one day to recover, and sacrificed. Colon length, plasma calcium, fecal blood score, and body weight were assayed. Colon length is a standard marker of intestinal inflammation in the literature, with shortened colon length being an indicator of inflammation. A 1-cm section of the mid-colon was removed, fixed in formalin, and stained with hematoxylin & eosin for microscopic histopathologic evaluation by a veterinary pathologist blinded to the treatments. Each tissue section received a score from 0 to 4 reflecting absence of lesion to severe, extensive lesion for each of three criteria: (1) the degree of erosion/ulceration of colon mucosa; (2) the degree of infiltration of the tissues by inflammatory cells; and (3) the degree of submucosal edema. The sum of the score of each of these criteria constitutes the histopathological score for the tissue with a zero score representing normal tissue based on all criteria, and the worst possible outcome being a score of 12.

[2] = tested on: DSS-induced inflammation of the lower colon; assay: Dextran sodium sulfate (DSS) mouse model of IBD; assay type: in vivo; conditions: DSS mice; for Fecal Blood Score: scale 0-3
Text: as §1

[3] = tested on: β-glucuronidase activity, ileum lumen contents; assay: β-glucuronidase cleavage in ileum lumen contents, free 1,25-D3 by RIA; assay type: in vitro ADME, rats; conditions: 2100 pg added
Description: The proximal 25 cm of duodenum/jejunum, the caudal 12 cm of ileum, and the cranial 12 cm of colon were removed. The contents from the lumen of each section were flushed with 3 ml water, collected, and pooled. Three-ml aliquots of intestinal contents were placed into tubes. To the tubes, either 2100 pg (3.53 pmoles) β-gluc-1,25-D3 was added and incubated at 37° C. for 0, 1, 3, or 6 hrs, or 150 pg (0.36 pmoles) of 1,25-D3 was added and incubated for 0 or 6 hrs. […] Acetonitrile (3 ml) was added to each tube after incubation to end all enzymatic activity, after which the 1,25-D3 was extracted. Tritiated 1,25-D3 was added to each tube to assess extraction efficiency. The preparations were cleaned by HPLC, and the samples were analyzed for 1,25-D3 content by RIA (Heartland Assays, Ames, Iowa) (Hollis et al., J. Steroid Biochem. Mol. Biol. 2007 103(3-5):473-6).

[4] = tested on: 4T1 tumor cells; assay: 4T1 mammary tumor growth in BALB/c mice; assay type: in vivo; conditions: 280 ng/day s.c. daily, eight days
Description: 4T1 tumor cells, originally isolated from a BALB/cfC3H mouse mammary gland, were obtained from American Tissue Culture Collection (Manassas, Va.). The tumor growth and metastatic spread of 4T1 cells in BALB/c mice very closely mimic human breast cancer. This syngeneic tumor graft is an animal model for stage 1V human breast cancer (Pulaski et al. Cancer Res. 1998, 58:1486-1493). The cells were grown in RPMI-1640 media supplemented with 10% fetal bovine serum. When cell growth reached about 70% confluency, the cells were lifted from the flasks with standard removing medium and rinsed with 0.25% trypsin, 0.53-mM EDTA solution (trypsin-EDTA solution). This solution was removed and an additional 1 to 2 ml of trypsin-EDTA solution was added. The flask was allowed to sit at 37.0° C. until the cells detached. Fresh culture medium was added, and the cells were aspirated for enumeration using a hemocytometer. RPMI-1640 and Matrigel (BD Biosciences, Bedford, Mass.) solutions were prepared and maintained at 4° C. to keep the Matrigel liquid. […] Sixteen days after implantation of the cells, tumors approximately 0.5-0.7 cm in diameter (as measured with calipers) formed under the skin of many of the mice. […]

[5] = Plasma 1,25-D3 concentration in mice after a single oral dose (RIA)

C=C1/C(=C\C=C2/CCC[C@]3(C)[C@@H]([C@H](C)CCCC(C)(C)O[C@@H]4O[C@H](C(=O)O)[C@@H](O)[C@H](O)[C@H]4O)CC[C@@H]23)C[C@@H](O)C[C@@H]1O [β-gluc-1,25-D3, 25-β-glucuronide-1,25-dihydroxyvitamin D3]
Plasma Calcium ([1]; 14 ng/day in diet): 10.25 ± 0.33 mg/dL | Plasma Calcium ([1]; 70 ng/day in diet): 10.12 ± 0.30 mg/dL | Plasma Calcium ([1]; 350 ng/day in diet): 10.72 ± 0.33^d mg/dl | hypercalcemia ([1]; alone at 70 ng/day): not accompanied by a physiologically significant increase in hypercalcemia | Histopathology score (0-12) ([2]; 14 ng/day): 6.66 ± 0.53^c | Colon Length ([2]; 14 ng/day in diet): 5.78 ± 0.09 cm | Final Body Weight ([2]; 14 ng/day in diet): 21.91 ± 0.49 g | Fecal Blood Score ([2]; 14 ng/day): 0.55 ± 0.26 | Histopathology score (0-12) ([2]; 70 ng/day): 6.33 ± 0.74^c | Colon Length ([2]; 70 ng/day in diet): 5.41 ± 0.15 cm | Final Body Weight ([2]; 70 ng/day in diet): 21.00 ± 0.68 g | Fecal Blood Score ([2]; 70 ng/day): 0.22 ± 0.08^c | Histopathology score (0-12) ([2]; 350 ng/day): 8.33 ± 0.64 | Colon Length ([2]; 350 ng/day in diet): 4.72 ± 0.15 cm | Final Body Weight ([2]; 350 ng/day in diet): 19.62 ± 0.69 g | Fecal Blood Score ([2]; 350 ng/day): 0.88 ± 0.43 | reducing inflammation ([2]; alone at 70 ng/day): numerically better than 1,25-D3 | Measured Free 1,25-dihydroxy vitamin D ([3]; 0 hrs incubation): 39 pg | Measured Free 1,25-dihydroxy vitamin D ([3]; 1 hr incubation): 1323 pg | Measured Free 1,25-dihydroxy vitamin D ([3]; 3 hrs incubation): 1127 pg | Measured Free 1,25-dihydroxy vitamin D ([3]; 6 hrs incubation): 1342 pg | tumor weight mean±SEM ([4]; BALB/c mice): 2.01 ± 0.36 g | effect on the growth of 4T1 tumor cells ([4]; P=0.034): significant anti-proliferative effect | plasma 1,25-D3 concentration ([5]; 6 pmol per os, 6 hr time point): not significantly increased | peak plasma 1,25-D3, fold over control mouse plasma 1,25-D3 ([5]; 24 pmol per os): 3.5 fold | peak plasma concentration of 1,25-D3 ([5]; 24 pmol per os): 325 pg/mL | time of peak plasma 1,25-D3 concentration ([5]; 24 pmol per os): approximately 3 hr | plasma 1,25-D3 concentration ([5]; 24 pmol per os, 24 hrs after treatment): slightly below the concentration observed in control animals | levels of 1,25-D3 in the blood, 1,25-D3 versus β-gluc-1,25-D3 ([5]; 6 hrs following treatment, each dose 6-48 pmol): comparable at each concentration
